Series [1] relates to PBL. Description: Cytotoxicity in human PBL assessed as nuclear division index at 0.054 uM pretreated before colcemid (reference value: 1.63 +/- 0.11 nuclear division index). The format is cell-based.
For series [2], the system named is PBL. As to the kind of experiment: Antimutagenic activity in human PBL assessed as inhibition of colcemid-induced frequency of micronucleus per 1000 binucleated lymphocyte cells at 0.3 uM co-treated with colcemid by cytokinesis blocking technique (reference value: 4.00 +/- 0.41 micronucleus frequency/1000 binucleated lymphocyte cells). The format is functional.

In series [3] the test system is PBL. Description: Cytotoxicity in human PBL assessed as nuclear division index at 0.054 uM co-treated with colcemid (reference value: 1.65 +/- 0.06 nuclear division index). The format is cell-based.

Each structure is given as a SMILES string.

As for `C=C[C@@]1(C)CC[C@H]2C(=CC[C@@H](C(=C)C)[C@]2(C)CCC(=O)[O-])C1.[Na+]`, the Activity with PBL [1] worked out at 1.52; in the series with PBL [2] it was 21.5; with PBL [3], 1.39.
